Measurements published in US20250206721A1, “Prostaglandin Receptor EP2 Antagonists, Derivatives, and Uses Related Thereto” (Emory University, priority 2019, published 2025).
Values after ≈ are worked out from the molar mass of the structure shown. Marks after values point to notes of the source that are not given here.

Key:
human EP2 receptor = target: T1, human EP2 receptor (Homo sapiens, UniProt P43116); experiment: Cell-based cAMP TR-FRET assay, Schild KB on EP2; conditions: for Kb / EP2 KB: Schild KB, agonist PGE2, antagonist concentration 1 μM, C6G cells expressing human EP2; for fold less EP2 potency in comparison to 2a: comparator 2a; for fold less potent than equivalent derivative: 11a vs 8b, 11b vs 8g, 11c vs 8f
T1 construct: expressed in transfected cells

[1] = Kinetic aqueous solubility in PBS by nephelometry; conditions: for Aqueous Solubility: PBS buffer (pH 7.4) with 1% DMSO, nephelometry
[2] = pH 2
in vivo = conditions: C57BL/6, mouse, ip, 10 mg/kg
human IP receptor = human IP receptor (Homo sapiens, UniProt P43119); experiment: Cell-based cAMP TR-FRET assay on IP (agonist iloprost); conditions: selectivity index IP KB/EP2 KB, fold
human EP4 receptor = human EP4 receptor (Homo sapiens, UniProt P35408); experiment: Cell-based cAMP TR-FRET assay on EP4 (agonist PGE2); conditions: selectivity index EP4 KB/EP2 KB, fold
Sequence of human EP4 receptor (P35408 whole entry): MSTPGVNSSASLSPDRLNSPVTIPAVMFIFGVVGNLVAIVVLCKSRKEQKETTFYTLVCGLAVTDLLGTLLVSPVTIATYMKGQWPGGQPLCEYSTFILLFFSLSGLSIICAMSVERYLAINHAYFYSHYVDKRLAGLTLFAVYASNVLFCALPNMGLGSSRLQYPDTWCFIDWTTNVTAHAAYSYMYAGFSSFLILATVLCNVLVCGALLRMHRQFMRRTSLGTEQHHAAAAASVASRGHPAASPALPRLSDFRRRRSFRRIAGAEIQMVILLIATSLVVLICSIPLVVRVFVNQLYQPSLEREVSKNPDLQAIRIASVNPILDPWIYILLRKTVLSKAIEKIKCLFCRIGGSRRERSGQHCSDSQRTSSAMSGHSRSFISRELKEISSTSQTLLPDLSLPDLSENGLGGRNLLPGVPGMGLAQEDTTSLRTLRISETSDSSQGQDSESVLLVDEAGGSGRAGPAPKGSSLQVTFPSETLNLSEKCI

Sequence of human IP receptor (P43119 whole entry): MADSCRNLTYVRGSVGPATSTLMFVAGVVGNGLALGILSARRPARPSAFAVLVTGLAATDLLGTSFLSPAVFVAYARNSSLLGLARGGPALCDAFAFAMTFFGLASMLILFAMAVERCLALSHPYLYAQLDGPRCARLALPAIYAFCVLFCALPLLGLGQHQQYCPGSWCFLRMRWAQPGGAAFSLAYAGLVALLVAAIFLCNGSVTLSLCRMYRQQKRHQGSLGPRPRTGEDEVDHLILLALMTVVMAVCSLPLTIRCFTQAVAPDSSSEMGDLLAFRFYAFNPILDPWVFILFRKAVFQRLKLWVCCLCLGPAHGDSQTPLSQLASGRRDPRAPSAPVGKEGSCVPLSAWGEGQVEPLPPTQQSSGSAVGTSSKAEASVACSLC
T1 sequence (P43116 whole entry): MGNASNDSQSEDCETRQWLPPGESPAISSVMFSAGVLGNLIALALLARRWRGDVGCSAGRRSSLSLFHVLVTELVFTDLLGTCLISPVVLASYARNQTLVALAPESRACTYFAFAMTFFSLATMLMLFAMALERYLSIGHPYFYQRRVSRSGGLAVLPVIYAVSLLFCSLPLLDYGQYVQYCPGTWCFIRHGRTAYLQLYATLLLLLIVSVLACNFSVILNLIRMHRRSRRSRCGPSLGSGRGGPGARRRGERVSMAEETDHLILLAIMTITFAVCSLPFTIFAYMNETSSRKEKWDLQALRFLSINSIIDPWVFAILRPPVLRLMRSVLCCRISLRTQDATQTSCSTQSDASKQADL

Aqueous Solubility [1] [µM]	Solubility in SGF [2]	Structure (SMILES)	other results
206		Cc1[nH]c2ccccc2c1CCNC(=O)c1ccc(N2CCOCC2)nc1 [Compound 2b, N-(2-(2-Methyl-1H-indol-3-yl)ethyl)-6-morpholinonicotinamide]	Kb (human EP2 receptor): 118 nM; fold less EP2 potency in comparison to 2a (human EP2 receptor): 4 fold; fold increased aqueous solubility ([1]; comparator 2a): 3 fold
25	>100 µM	Cc1[nH]c2ccccc2c1CCNC(=O)c1ccc(-c2ccccc2)nc1 [Compound 8a, N-(2-(2-Methyl-1H-indol-3-yl)ethyl)-6-phenylnicotinamide]	
13	>100 µM	COc1cccc(-c2ccc(C(=O)NCCc3c(C)[nH]c4ccccc34)cn2)c1 [Compound 8b, 6-(3-Methoxyphenyl)-N-(2-(2-methyl-1H-indol-3-yl)ethyl)nicotinamide]	
28	>100 µM	COc1ccccc1-c1ccc(C(=O)NCCc2c(C)[nH]c3ccccc23)cn1 [Compound 8c, 6-(2-Methoxyphenyl)-N-(2-(2-methyl-1H-indol-3-yl)ethyl)nicotinamide]	half-life (in vivo): < 1 h
8	50^c μM	Cc1[nH]c2ccccc2c1CCNC(=O)c1ccc(-c2ccccc2O)nc1 [Compound 8d, 6-(2-Hydroxyphenyl)-N-(2-(2-methyl-1H-indol-3-yl)ethyl)nicotinamide]	
22	>100 µM	Cc1[nH]c2ccccc2c1CCNC(=O)c1ccc(-c2ccccc2F)nc1 [Compound 8e, 6-(2-Fluorophenyl)-N-(2-(2-methyl-1H-indol-3-yl)ethyl)nicotinamide]	fold less EP2 potency in comparison to 2a (human EP2 receptor): 2 fold; fold less EP2 potency in comparison to 8c (human EP2 receptor; comparator 8c (14b vs. 14c or 8c)): 4 fold
25	>100 µM	CC(=O)Nc1ccc(-c2ccc(C(=O)NCCc3c(C)[nH]c4ccccc34)cn2)cc1 [Compound 8f, 6-(4-Acetamidophenyl)-N-(2-(2-methyl-1H-indol-3-yl)ethyl)nicotinamide]	
12	>100 µM	COc1cc(OC)cc(-c2ccc(C(=O)NCCc3c(C)[nH]c4ccccc34)cn2)c1 [Compound 8g, 6-(3,5-Dimethoxyphenyl)-N-(2-(2-methyl-1H-indol-3-yl)ethyl)nicotinamide]	half-life (in vivo): < 1 h
14	14 µM (≈ 5.4 µg/mL)	COc1cccc(-c2ccc(C(=O)NCCc3c(C)[nH]c4ccccc34)nc2)c1 [Compound 11a, 5-(3-Methoxyphenyl)-N-(2-(2-methyl-1H-indol-3-yl)ethyl)picolinamide]	fold less potent than equivalent derivative (human EP2 receptor): 4 fold
10	10 µM (≈ 4.15 µg/mL)	COc1cc(OC)cc(-c2ccc(C(=O)NCCc3c(C)[nH]c4ccccc34)nc2)c1 [Compound 11b, 5-(3,5-Dimethoxyphenyl)-N-(2-(2-methyl-1H-indol-3-yl)ethyl)picolinamide]	fold less potent than equivalent derivative (human EP2 receptor): 11 fold
10	10 µM (≈ 4.12 µg/mL)	CC(=O)Nc1ccc(-c2ccc(C(=O)NCCc3c(C)[nH]c4ccccc34)nc2)cc1 [Compound 11c, 5-(4-Acetamidophenyl)-N-(2-(2-methyl-1H-indol-3-yl)ethyl)picolinamide]	
10	10^d μM	COc1ccccc1-c1ccc(C(=O)NCCc2c(C)[nH]c3ccccc23)cc1F [Compound 14b, 2-Fluoro-2′-methoxy-N-(2-(2-methyl-1H-indol-3-yl)ethyl)-[1,1′-biphenyl]-4-carboxamide]	
5		COc1ccccc1-c1ccc(C(=O)NCCc2c(C)[nH]c3ccccc23)cc1 [Compound 14c, 2′-Methoxy-N-(2-(2-methyl-1H-indol-3-yl)ethyl)-[1,1′-biphenyl]-4-carboxamide]	
5		Cc1[nH]c2ccccc2c1CCNC(=O)c1cnc(Nc2cc(C(C)(C)C)ccn2)nc1 [Compound 20d, 2-((4-(tert-Butyl)pyridin-2-yl)amino)-N-(2-(2-methyl-1H-indol-3-yl)ethyl)pyrimidine-5-carboxamide]	
25		Cc1cccc(Nc2ncc(C(=O)NCCc3c(C)[nH]c4ccccc34)cn2)n1 [Compound 20e, N-(2-(2-Methyl-1H-indol-3-yl)ethyl)-2-((6-methylpyridin-2-yl)amino)pyrimidine-5-carboxamide]	S.I (IP/EP2) (human IP receptor): >1500; S.I (EP4/EP2) (human EP4 receptor): >1500
13		Cc1[nH]c2ccccc2c1CCNC(=O)c1cnc(Nc2cccc(C#N)n2)nc1 [Compound 20g, 2-((6-Cyanopyridin-2-yl)amino)-N-(2-(2-methyl-1H-indol-3-yl)ethyl)pyrimidine-5-carboxamide]	
10		Cc1[nH]c2ccccc2c1CCNC(=O)c1cnc(Nc2cccc(O)n2)nc1 [Compound 20i, 2-((6-Hydroxypyridin-2-yl)amino)-N-(2-(2-methyl-1H-indol-3-yl)ethyl)pyrimidine-5-carboxamide]	
5		CC(=O)c1cccc(Nc2ncc(C(=O)NCCc3c(C)[nH]c4ccccc34)cn2)n1 [Compound 20j, 2-((6-Acetylpyridin-2-yl)amino)-N-(2-(2-methyl-1H-indol-3-yl)ethyl)pyrimidine-5-carboxamide]	
		CC(=O)c1ccc(Nc2ncc(C(=O)NCCc3c(C)[nH]c4ccccc34)cn2)nc1 [Compound 20l, 2-((5-Acetylpyridin-2-yl)amino)-N-(2-(2-methyl-1H-indol-3-yl)ethyl)pyrimidine-5-carboxamide]	Kb (human EP2 receptor): 166 nM; fold reduced EP2 potency in comparison to 20b (human EP2 receptor; comparator 20b): 20 fold
6		CCC(C)(O)c1cccc(Nc2ncc(C(=O)NCCc3c(C)[nH]c4ccccc34)cn2)n1 (centres unmarked) [Compound 20m, 2-((6-(2-Hydroxybutan-2-yl)pyridin-2-yl)amino)-N-(2-(2-methyl-1H-indol-3-yl)ethyl) pyrimidine-5-carboxamide]	
25		Cc1[nH]c2ccccc2c1CCNC(=O)c1cnc(Nc2cccc(C(C)(C)C)n2)nc1 [Compound 20n, 2-((6-(tert-Butyl)pyridin-2-yl)amino)-N-(2-(2-methyl-1H-indol-3-yl)ethyl)pyrimidine-5-carboxamide]	
38		Cc1[nH]c2ccccc2c1CCNC(=O)c1cnc(Nc2ccncc2)nc1 [Compound 20p, N-(2-(2-Methyl-1H-indol-3-yl)ethyl)-2-(pyridin-4-ylamino)pyrimidine-5-carboxamide]	EP2 KB (human EP2 receptor): complete loss of potency
17		Cc1[nH]c2ccccc2c1CCNC(=O)c1cnc(Nc2cccnc2)nc1 [Compound 20q, N-(2-(2-Methyl-1H-indol-3-yl)ethyl)-2-(pyridin-3-ylamino)pyrimidine-5-carboxamide]	Kb (human EP2 receptor): 8.3 nM; S.I (IP/EP2) (human IP receptor): >1200; S.I (EP4/EP2) (human EP4 receptor): >1200
100		Cc1ccc(Nc2ncc(C(=O)NCCc3c(C)[nH]c4ccccc34)cn2)c(C)n1 [Compound 20r, 2-((2,6-Dimethylpyridin-3-yl)amino)-N-(2-(2-methyl-1H-indol-3-yl)ethyl)pyrimidine-5-carboxamide]	fold reduced EP2 potency (human EP2 receptor; 20f vs. 20c, 20n vs. 20e, comparator of 20g and 20r not stated): 10 fold; Kb (human EP2 receptor): 88.1 nM
5		Cc1cc(C)nc(Nc2ncc(C(=O)NCCc3c(C)[nH]c4ccc(F)cc34)cn2)c1 [Compound 24a, 2-((4,6-Dimethylpyridin-2-yl)amino)-N-(2-(5-fluoro-2-methyl-1H-indol-3-yl)ethyl)pyrimidine-5-carboxamide]	S.I (IP/EP2) (human IP receptor): 770
20		Cc1cc(C)nc(Nc2ncc(C(=O)NCCc3c(C)[nH]c4ccc(Cl)cc34)cn2)c1 [Compound 24b, N-(2-(5-Chloro-2-methyl-1H-indol-3-yl)ethyl)-2-((4,6-dimethylpyridin-2-yl)amino)pyrimidine-5-carboxamide]	Kb (human EP2 receptor): 28.3 nM; S.I (IP/EP2) (human IP receptor): >350; S.I (EP4/EP2) (human EP4 receptor): >350
20		COc1ccc2[nH]c(C)c(CCNC(=O)c3cnc(Nc4cc(C)cc(C)n4)nc3)c2c1 [Compound 24e, 2-((4,6-Dimethylpyridin-2-yl)amino)-N-(2-(5-methoxy-2-methyl-1H-indol-3-yl)ethyl)pyrimidine-5-carboxamide]	
45		Cc1cc(C)nc(Nc2ncc(C(=O)NCCc3c(C(F)(F)F)[nH]c4ccccc34)cn2)c1 [Compound 24f, 2-((4,6-Dimethylpyridin-2-yl)amino)-N-(2-(2-(trifluoromethyl)-1H-indol-3-yl)ethyl)pyrimidine-5-carboxamide]	Kb (human EP2 receptor): 66 nM; fold reduced EP2 potency in comparison to 20o (human EP2 receptor; comparator 20o): 8 fold
70		Cc1cc(C)nc(Nc2ncc(C(=O)NCCc3c(C)nn4ccccc34)cn2)c1 [Compound 24g, 2-((4,6-Dimethylpyridin-2-yl)amino)-N-(2-(2-methylpyrazolo[1,5-a]pyridin-3-yl)ethyl)pyrimidi-ne-5-carboxamide]	
		Cc1cc(C)nc(Nc2ncc(C(=O)NCC(=O)c3c(C)[nH]c4ccccc34)cn2)c1 [Compound 24h, 2-((4,6-Dimethylpyridin-2-yl)amino)-N-(2-(2-methyl-1H-indol-3-yl)-2-oxoethyl)pyrimidine-5-carboxamide]	EP2 KB (human EP2 receptor): eliminated the potency
